Measurements from patent US11180767B2, “Protease deficient filamentous fungal cells and methods of use thereof” (GLYKOS FINLAND OY, priority 2012, dated 2021).
Non-standard residues stand in square brackets, D forms with d. Residues, ends and D or L forms follow the SMILES beside them. *: point of attachment. Sta = CC(C)C[C@H](N)[C@@H](O)CC(=O)O; Isovaleryl = CC(C)CC(=O)*

Experiments:
[1] = tested on: SIP purified proteases (PEP2, PEP3, PEP4, PEP5, GAP1, SLP2); assay: Protease activity of SIP purified fractions against casein with inhibitors (EnzChek); assay type: biochemical, Trichoderma reesei; conditions: pH 5.5
Protocol: Protease activity was then tested against casein both in the presence and absence of protease inhibitors. Protease activity against casein was tested using the EnzChek protease assay kit (Molecular probes #E6638, green fluorescent casein substrate). The working stock solution was prepared by diluting the stock to 10 μg ml in 50 mM sodium citrate, pH 5.5. The purified protease fractions (10 μl) were diluted with […] of sodium citrate, pH 5.5. 100 μl of the diluted substrate was combined with the diluted protease fractions in a 96 well sample plate. The plate was then covered and kept at 37° C. for one to three hours. Fluorescence readings were taken at one, two, and three hours with a Varioskan fluorescent plate reader (Thermo Scientific) using 485 nm excitation and 530 nm emission.
The SIP inhibitor peptide, pepstatin A, LIP peptide, SBTI, and chymostatin were used as inhibitors. […] SIP, LIP, and pepstatin A were used at a concentration of 60 μM, and SBTI was used at a concentration of 200 μg/ml.

[2] = tested on: rituximab antibody producing strain; assay: Treatment of T. reesei rituximab cultures with inhibitors; assay type: cell-based, Trichoderma reesei; conditions: small shake flasks, inhibitors added daily day 2-5
Protocol: The effectiveness of the inhibitors was also tested with the rituximab antibody producing strain, which contains a VALEKR linker sequence and the pep1 deletion. This strain was grown in triplicate, in small flasks both in presence or absence of chymostatin, SBTI, or pepstatin A. The small shake flasks contained 50 ml of TrMM plus lactose (40 g/l), spent grain extract (20 g/l), and buffer with 100 mM PIPPS at pH 5.5. The SBTI inhibitor was added to the culture at final concentrations of either 100 μg/ml or 500 μg/ml. Chymostatin was used at 100 μM, and pepstatin A was used at 10 μM. Each of the three inhibitors was added to the cultures daily on day 2, 3, 4, and 5.
Growth of the cultures was followed daily by pH from day 2 until day 7. […] In the PIPPS buffered cultures, the pH decreased from an initial pH of 5.5 down to a pH of 4.8 after day 6. With chymostatin and pepstatin A the cultures were monitored up to day 7. On day 7 the average pH for the control bottles was 4.6, while the average pH for chymostatin treated cultures was 4.9, and the average pH of pepstatin A treated cultures was 5.0.
Culture supernatant samples (30 μl) were also collected on days 3, 4, and 5 for analysis of antibody production. The analysis was performed by immunoblots using an anti-IgG heavy chain antibody AP conjugate (Sigma #A3188) and an anti-light chain antibody AP conjugate (Sigma #A3812). Each antibody was diluted 1:30,000 in TBST. The full length rituximab heavy chain is about 51 kD, the rituximab light chain CHBI fusion is about 100 kD, and the free rituximab light chain is about 28 kD.

With `CC(C)CC(=O)N[C@H](C(=O)N[C@H](C(=O)N[C@@H](CC(C)C)[C@@H](O)CC(=O)N[C@@H](C)C(=O)N[C@@H](CC(C)C)[C@@H](O)CC(=O)O)C(C)C)C(C)C` [pepstatin A] (Isovaleryl-VV[Sta]A[Sta]-OH) the proteases inhibited ([1]; SIP, LIP, pepstatin A 60 μM, SBTI 200 μg/ml) was “inhibited only aspartic proteases”, the “inhibition of SIP purified protease activity against casein” value ([1]; FIG. 11) was “a large portion of the SIP protease activity was inhibited” and the “effect on culture growth (followed by pH)” value [2] was “small reduction in growth”.
